From US9562272B2, “Screening method for therapeutic agent for chondropathy and modified chondrocyte for treatment of chondropathy” (KYOTO UNIVERSITY, priority 2011, dated 2017)

Biological target: T1, SIK3 (Homo sapiens, UniProt Q9Y2K2)
T1 construct: expressed in transfected cells; host or cells: HEK293
Assay: GAL4-Luc/TORC2 dual-luciferase reporter screening system for SIK3 activity in HEK293 cells
Type: cell-based
Conditions: HEK293 cells transfected with pM-TORC2 and pTarget-SIK3; test substance added 24 h later, treated for 6 hours; DMSO control
Method: Into HEK293 cells, a reporter vector GAL4-Luc (firefly luciferase: pTAL-5XGAL4 (150 ng)), an endogenous reporter vector (Renilla luciferase: pRL-Int (−) (30 ng)), a vector with or without the expression of TORC (pM-TORC2 or pM only (50 ng)) and a vector with or without the expression of SIK3 (pTarget-SIK3 or pTarget only (50 ng)) were introduced using Lipofectamine 2000. Twenty-four hours later, a test substance was added and the cells were further treated for 6 hours. The measurement of the reporter activity was performed using Dual-Luciferase assay kit made by Promega. As the test substance, staurosporine (STS) or a SIK2 inhibitor (Compound C) was used. As a control, DMSO alone was added.
In FIG. 7, the vertical axis represents the activity of TORC2, which is the activity of pM-TORC2 that was calculated by dividing the firefly luciferase activity by the Renilla luciferase activity and is expressed as a multiple of the activity of pM. The white bars and the black bars represent the activities of TORC2 with the absence and presence of SIK3, respectively. […] As is apparent from FIG. 7, the inhibiting activity of staurosporine (STS) on SIK3 was detected.

T1 sequence (Q9Y2K2 whole entry): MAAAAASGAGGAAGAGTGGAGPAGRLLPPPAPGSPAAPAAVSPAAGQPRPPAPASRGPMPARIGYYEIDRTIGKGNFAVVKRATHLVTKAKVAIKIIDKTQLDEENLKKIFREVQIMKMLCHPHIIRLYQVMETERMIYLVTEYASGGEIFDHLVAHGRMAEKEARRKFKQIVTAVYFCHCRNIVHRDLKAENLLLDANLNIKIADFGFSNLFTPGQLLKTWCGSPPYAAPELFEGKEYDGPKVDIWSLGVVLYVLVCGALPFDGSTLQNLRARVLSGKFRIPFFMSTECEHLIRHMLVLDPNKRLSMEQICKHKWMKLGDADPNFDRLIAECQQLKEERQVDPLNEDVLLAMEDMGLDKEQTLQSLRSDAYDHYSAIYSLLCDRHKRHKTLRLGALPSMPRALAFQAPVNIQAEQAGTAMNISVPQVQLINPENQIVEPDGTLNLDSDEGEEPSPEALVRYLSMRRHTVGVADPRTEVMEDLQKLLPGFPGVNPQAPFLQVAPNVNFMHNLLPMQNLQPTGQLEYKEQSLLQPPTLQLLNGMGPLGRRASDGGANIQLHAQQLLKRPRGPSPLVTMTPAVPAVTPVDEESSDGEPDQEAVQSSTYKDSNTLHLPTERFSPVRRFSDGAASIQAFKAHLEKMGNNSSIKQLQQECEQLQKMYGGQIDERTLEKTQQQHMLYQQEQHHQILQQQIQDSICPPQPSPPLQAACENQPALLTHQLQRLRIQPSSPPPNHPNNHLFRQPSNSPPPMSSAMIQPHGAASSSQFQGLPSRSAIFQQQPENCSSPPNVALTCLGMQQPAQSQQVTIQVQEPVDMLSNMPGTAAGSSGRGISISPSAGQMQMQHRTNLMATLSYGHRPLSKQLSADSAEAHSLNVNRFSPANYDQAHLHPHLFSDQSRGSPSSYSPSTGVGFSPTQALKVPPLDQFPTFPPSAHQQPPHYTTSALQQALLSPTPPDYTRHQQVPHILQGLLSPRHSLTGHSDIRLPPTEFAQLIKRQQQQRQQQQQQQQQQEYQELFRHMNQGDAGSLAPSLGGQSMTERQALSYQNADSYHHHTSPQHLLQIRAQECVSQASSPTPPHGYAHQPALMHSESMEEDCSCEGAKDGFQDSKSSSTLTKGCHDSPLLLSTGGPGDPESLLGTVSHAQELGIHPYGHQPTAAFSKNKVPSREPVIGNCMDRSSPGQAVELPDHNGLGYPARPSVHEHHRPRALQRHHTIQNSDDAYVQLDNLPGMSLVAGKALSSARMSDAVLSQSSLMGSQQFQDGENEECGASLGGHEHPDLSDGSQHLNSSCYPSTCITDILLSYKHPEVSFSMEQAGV

CN[C@@H]1C[C@H]2O[C@@](C)([C@@H]1OC)n1c3ccccc3c3c4c(c5c6ccccc6n2c5c31)C(=O)NC4 [staurosporine]
inhibiting activity on SIK3 (activity of TORC2 with absence vs presence of SIK3): detected
